Source: patent US20260022143A1, “Cyclic Peptide Inhibitors of IL-23” (JANSSEN PHARMACEUTICA NV, priority 2022, published 2026)
pIC50: −log10 of the molar value. Starred links: 1 amine or outer side, 2 acyl side, 3 side chain; linkers in the order of their positions; H or OH if unused. Positions of bridges follow the written chain, without caps; N, C: chain ends. Non-standard residues stand in square brackets, D forms with d. Residues, ends and D or L forms follow the SMILES beside them. *: point of attachment. Me3N+(CH2)2O(CH2)2O(CH2)2CO = C[N+](C)(C)CCOCCOCCC(=O)*; Trp(7-Me) = Cc1cccc2c(C[C@H](N)C(=O)O)c[nH]c12; Decanoyl(3,6,9-trioxa) = COCCOCCOCC(=O)*; 2Nal = N[C@@H](Cc1ccc2ccccc2c1)C(=O)O; AEF = NCCOc1ccc(C[C@H](N)C(=O)O)cc1; X24 = C[N+](C)(CCN[*:1])CC(=O)[*:2]; dNMeY = CN[C@H](Cc1ccc(O)cc1)C(=O)O; 3Pal = N[C@@H](Cc1cccnc1)C(=O)O; Cit = NC(=O)NCCC[C@H](N)C(=O)O; Lys(Me) = CNCCCC[C@H](N)C(=O)O; αMeL = CC(C)C[C@](C)(N)C(=O)O; Pen = CC(C)(S)[C@H](N)C(=O)O; Thp = NC1(C(=O)O)CCOCC1; X3 = C[N+](C)(C)CCCCC*; Sar = CNCC(=O)O

Experiments:
IL-23R = molecular target: T1, IL-23R (Homo sapiens, UniProt Q5VWK5); assay: IL23R Reporter Assay; format: cell-based; settings: HEK293 cells containing IL-23R, IL-12RP1 and STAT-inducible firefly luciferase reporter; 10 ng/mL IL-23 (EC90); 5 h at 37° C.; read-out: IL23R Reporter Assay
T1 construct: host or cells: HEK293
T1 sequence (Q5VWK5 24-629): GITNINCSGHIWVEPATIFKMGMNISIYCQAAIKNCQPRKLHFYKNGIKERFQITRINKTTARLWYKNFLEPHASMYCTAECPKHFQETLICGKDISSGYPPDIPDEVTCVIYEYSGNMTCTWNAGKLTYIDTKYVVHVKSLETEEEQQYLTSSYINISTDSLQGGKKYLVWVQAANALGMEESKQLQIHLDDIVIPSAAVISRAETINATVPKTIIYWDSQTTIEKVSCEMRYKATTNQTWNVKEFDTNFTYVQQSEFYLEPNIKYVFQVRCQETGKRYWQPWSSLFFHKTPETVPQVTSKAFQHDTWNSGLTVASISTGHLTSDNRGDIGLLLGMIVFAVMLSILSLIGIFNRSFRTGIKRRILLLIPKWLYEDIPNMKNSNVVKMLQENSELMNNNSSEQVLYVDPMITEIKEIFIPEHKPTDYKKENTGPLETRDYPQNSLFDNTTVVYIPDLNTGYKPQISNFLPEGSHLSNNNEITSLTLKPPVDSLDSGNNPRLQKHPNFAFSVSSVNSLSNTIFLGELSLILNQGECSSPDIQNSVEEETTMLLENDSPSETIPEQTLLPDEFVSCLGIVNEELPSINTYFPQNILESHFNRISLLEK

[1] = Exposed Polar Surface Area (EPSA); format: physicochemical; settings: SFC on Chirex 3014 column; sample 1 mM DMSO stock; read-out: EPSA
Procedure, shortened: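 Polarity descriptor in Å² derived from retention time using 8 calibration standards re-run every 20 compounds. Duplicate injections of 1 mM DMSO stock; linear 5–60% modifier gradient (20 mM ammonium formate in MeOH) with CO2 at 4 mL/min, 35 °C, on a Chirex 3014 column.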

Compound | pIC50 (IL-23R) | EPSA [1]
COCCOCCOCC(=O)NCC[N+](C)(C)CC(=O)N[C@@H]1C(=O)N[C@@H](CC(=O)N(C)C)C(=O)N[C@@H]([C@@H](C)O)C(=O)N[C@@H](Cc2c[nH]c3c(C)cccc23)C(=O)N[C@@H](CCC(=O)N(C)C)C(=O)N[C@H](C(=O)N[C@@H](Cc2ccc(OCCN)cc2)C(=O)N[C@@H](Cc2ccc3ccccc3c2)C(=O)NC2(C(=O)N[C@@H](CCC(=O)N(C)C)C(=O)N[C@@H](CC(N)=O)C(=O)N[C@@H](Cc3cccnc3)C(=O)N(C)CC(N)=O)CCOCC2)C(C)(C)SSC1(C)C [compound 146, mPEG3CO-SP6-Pen(3)-N(N(Me)2)-T-7MeW-Q(N(Me)2)-Pen(3)-AEF-2Nal-THP-Q(N(Me)2)-N-3Pya-Sar-CONH2] ({Decanoyl(3,6,9-trioxa)}-[X24][Pen]D(NMe2)T[Trp(7-Me)]E(NMe2)[Pen][AEF][2Nal][Thp]E(NMe2)N[3Pal][Sar]-NH2; disulfide 2-7) | 8.42 | 152 A^2
CC(=O)N[C@H](CCCNC(=N)N)C(=O)N[C@@H]1C(=O)N[C@@H](CC(N)=O)C(=O)N[C@@H]([C@@H](C)O)C(=O)N[C@@H](Cc2c[nH]c3c(C)cccc23)C(=O)N[C@@H](CCCNC(N)=O)C(=O)N[C@H](C(=O)N[C@@H](Cc2ccc(OCCN)cc2)C(=O)N[C@@H](Cc2ccc3ccccc3c2)C(=O)N[C@@](C)(CC(C)C)C(=O)N[C@@H](CCC(=O)O)C(=O)N[C@@H](CC(N)=O)C(=O)N[C@H](CCCCN)C(=O)N(C)[C@H](Cc2ccc(O)cc2)C(N)=O)C(C)(C)SSC1(C)C [compound 16, MeCO-r-Pen(3)-N-T-7MeW-Cit-Pen(3)-AEF-2Nal-aMeL-E-N-k-NMeDTyr-CONH2] (Ac-[dR][Pen]NT[Trp(7-Me)][Cit][Pen][AEF][2Nal][αMeL]EN[dK][dNMeY]-NH2; disulfide 2-7) | 7.62 | 180 A^2

Continued, values first:

pIC50 (IL-23R) | EPSA [1] | Compound
8.52 | 171 A^2 | CC(=O)NCCCC[C@H](NC(=O)C1(NC(=O)[C@H](Cc2ccc3ccccc3c2)NC(=O)[C@H](Cc2ccc(OCCN)cc2)NC(=O)[C@H]2NC(=O)[C@H](CCCCN(C)C(C)=O)NC(=O)[C@H](Cc3c[nH]c4c(C)cccc34)NC(=O)[C@H]([C@@H](C)O)NC(=O)[C@H](CC(N)=O)NC(=O)[C@@H](NC(=O)C(COCCOCC[N+](C)(C)C)NC(C)=O)C(C)(C)SSC2(C)C)CCOCC1)C(=O)N[C@@H](CC(N)=O)C(=O)N[C@@H](Cc1cccnc1)C(=O)N(C)CC(N)=O (mixture of isomers) [compound 554, MeCO-APEG2Ser(RS)-Pen(3)-N-T-7MeW-K(Ac)-Pen(3)-AEF-2Nal-THP-K(Ac)-N-3Pya-Sar-CONH2]
8.43 | 189 A^2 | CC(=O)NCCCC[C@@H]1NC(=O)[C@H](Cc2c[nH]c3c(C)cccc23)NC(=O)[C@H]([C@@H](C)O)NC(=O)[C@H](CC(N)=O)NC(=O)[C@@H](NC(=O)COc2ccc(-c3ccc(F)cc3F)cc2C(=O)O)C(C)(C)SSC(C)(C)[C@@H](C(=O)N[C@@H](Cc2ccc(OCCCCC[N+](C)(C)C)cc2)C(=O)N[C@@H](Cc2ccc3ccccc3c2)C(=O)NC2(C(=O)N[C@@H](CCCCNC(C)=O)C(=O)N[C@@H](CC(N)=O)C(=O)N[C@@H](Cc3cccnc3)C(=O)N(C)CC(N)=O)CCOCC2)NC1=O [compound 527, DFNCO-Pen(3)-N-T-7MeW-K(Ac)-Pen(3)-TMAPF-2Nal-THP-K(Ac)-N-3Pya-Sar-CONH2]
< 5.79 | 133 A^2 | CC(=O)N(C)CCCC[C@@H]1NC(=O)[C@H](Cc2c[nH]c3c(C)cccc23)NC(=O)[C@H]([C@@H](C)O)NC(=O)[C@H](CC(=O)N(C)C)NC(=O)[C@@H](NC(=O)CCOCCOCC[N+](C)(C)C)C(C)(C)SSC(C)(C)[C@@H](C(=O)N[C@@H](Cc2ccc(OCCCCC[N+](C)(C)C)cc2)C(=O)N[C@@H](CC(C)C)C(=O)NC2(C(=O)N[C@@H](CCCCN(C)C(C)=O)C(=O)N[C@@H](CC(N)=O)C(=O)N[C@@H](Cc3cccnc3)C(=O)N(C)CC(=O)N(C)C)CCOCC2)NC1=O [compound 499, cPEG3aCO-Pen(3)-N(N(Me)2)-T-7MeW-K(NMeAc)-Pen(3)-TMApF-L-THP-K(NMeAc)-N-3Pya-Sar-CON(Me)2] ({Me3N+(CH2)2O(CH2)2O(CH2)2CO}-[Pen]D(NMe2)T[Trp(7-Me)][Lys(Me)](Ac)[Pen]Y(X3)L[Thp][Lys(Me)](Ac)N[3Pal][Sar]-NMe2; disulfide 1-6)
